Measurements published in patent publication EP4134671A1, “METHYLENE QUINUCLIDINONE COMPANION DIAGNOSTICS” (Deutsches Krebsforschungszentrum Stiftung des öffentlichen …, priority 2021, dated 2023).

Experiments:
[1] = test system: p53 target gene expression (CDKN1A and GADD45A); experiment: Real-time PCR of p53 pathway activation in SF188; format: cell-based; conditions: APR-246 treatment
Method: (§1) Real-time PCR was performed as described previously (Fischer et al., J Mol Diagn 2005, 7, 89-96; Witt et al., Blood 2003, 101, 2001-2007). The following primers were purchased from ThermoFisher Scientific: CDKN1A (p21^WAF1/^CIP1, forward: 5'-TGGAGACTCTCAGGGTCGAAA-3'(SEQ ID NO:1), reverse: 5'-GGCGTTTGGAGTGGTAGAAATC-3'(SEQ ID NO.2)), HPRT (forward: 5'-TGACACTGGCAAAACAATGCA-3'(SEQ ID NO:3), reverse: 5'-GGTCCTTTTCACCAGCAAGCT-3'(SEQ ID NO:4)), SDHA (forward: 5'-TGGGAACAAGAGGGCATCTG-3'(SEQ ID NO:5), reverse: 5'-CCACCACTGCATCAAATTCATG-3'(SEQ ID NO:6)), and PUMA (forward: 5'-CCTGGAGGGTCCTGTACAATCT-3'(SEQ ID NO:7), reverse: 5'-GCACCTAATTGGGCTCCATCT-3'(SEQ ID NO:8)). The primer for GADD45A was purchased from Qiagen, Hilden, Germany (QT00014084). The delta-delta-Ct method was used to calculate the relative expression, and normalization was performed to neuroblastoma specific housekeeping genes SDHA and HPRT (Fischer et al., J Mol Diagn 2005, 7, 89-96).

[2] = test system: p53 target gene expression; experiment: Real-time PCR of p53 pathway activation in SK-N-BE(2)-C; format: cell-based; conditions: SK-N-BE(2)-C (C135F), 24 h
Method: as §1

[3] = test system: vincristine resistant SK-N-BE(2)-C; experiment: Metabolic activity assay (CellTiter-Glo), vincristine resistant cells; format: cell-based; conditions: vincristine resistant vs non-resistant control SK-N-BE(2)-C; 72 h, APR-246 0 - 30 µM
Method: Vincristine resistant and non-resistant SK-N-BE(2)-C (passage 30 to 45, kindly provided by M. Michaelis, University of Kent, and J. Cinatl, Goethe University, Frankfurt am Main) were cultured using IMDM with L-Glutamine, 2mM HEPES (Gibco) supplemented with 10% FCS; for the resistant cells, 20 ng/ml vincristine was added to the medium. The cells were made to be resistant to vincristine-treatment through long-term cultivation in a vincristine containing medium.
If not otherwise declared, cells were precultured for 72 h at a density of 2,000,000 cells per T75 flask (exceptions: Kelly, NB1 and IMR-32 4,000,000 per T75 flask, SJ-GBM2 1,000,000 per T75 flask). Cells were detached with trypsin-EDTA (ThermoFisher Scientific) and seeded in 96-well plates (Greiner, Microplate, 96-Well, PS, F-bottom µCLEAR®, CELLSTAR®) in 100 µl medium per well at a density of 5,000 (KNS-42, SJ-GBM2, SF188, SK-N-BE(2)-C) or 10,000 (IMR-32, NB1, Kelly) cells/well. HDAC-inhibitor screenings were performed accordingly in 384-well plates (Greiner, Microplate, 384-Well, PS, F-bottom µCLEAR®, CELLSTAR®) in 20 µl medium per well at a density of 1,250 (SK-N-BE(2)-C, SK-N-AS) or 2,500 (IMR-32) cells/well. […] Cell viability was quantified using CellTiter-Glo® 2.0 kit (Promega, Madison, USA). […] Bioluminescence was quantified on an OPTIMA plate reader (BMG Labtech, Ortenberg, Germany).

[4] = test system: p53 target genes CDKN1A, PUMA and GADD45A; experiment: Real-time PCR of p53 pathway activation in IMR-32; format: cell-based; conditions: IMR-32 (TP53-wt), 24 h
Method: as §1

Zebrafish embryo = Zebrafish embryo drug toxicity assay; format: in vivo; conditions: embryos 48 hpf, 34°C, imaged at 72 hpf and 120 hpf; APR-246 range 10-200 µM, Vorinostat range 2.5-100 µM
Method: The toxicity of the compounds was assessed before performing in vivo experiments and a Maximum Tolerated Dose (MTD) was determined. Embryos (48 hpf) were transferred to 48-well uncoated plates (Corning) containing different concentrations of the compounds and a solvent control. The stock solution of the compounds was further dissolved in E3 buffer supplemented with 0.2mM 1-phenyl-2- thiourea (PTU, Sigma) in order to reach the desired concentrations. Three embryos were tested per concentration or solvent control. Embryos were kept at 34°C during the experiment and were imaged at 72 hpf and 120 hpf using a stereo microscope (Leica). The embryos were assessed for signs of toxicity, like death, morphology changes (curvature of body, edema) and behavioral changes. APR-246 concentration range tested: 10-200 µM, MTD: 50µM; solvent control: DMSO (0.2% and 0.5%); Vorinostat concentration range tested: 2.5-100 µM, no toxicity detected (MTD: 100µM); solvent control: DMSO (0.1%).

[5] = clinical; cited from earlier work
IMR-32 cells = experiment: Flow cytometry: ROS (DCFDA) and lipid peroxidation (BODIPY); format: cell-based; conditions: IMR-32, 50 µM APR-246 for 5 h vs solvent control (DMSO), FACS
Method: Flow Cytometry was applied to analyze the lipid peroxidation (BODIPY staining) and to detect ROS (DCFDA staining). BODIPY 581/591 C11 Lipid peroxidation sensor staining (stock concentration: 20 mM in dimethylformamide, Invitrogen, Thermo Fisher Scientific) was used at a working concentration of 20 µM, and was diluted with RPMI without phenol red (Gibco). After inspection, the cells were detached, centrifuged and stained for 20 minutes at 37°C in a 500 µl staining solution. After centrifugation, cells were resuspended in 300 µl RPMI without phenol red, supplemented with 10% FCS. Fluorescence was measured in a FACSCanto II (BD) with 488 nm excitation and detected using a 502 nm longpass and 530/30 nm bandpass filter. Data were analyzed using FlowJo 10.x.
ROS detection was performed as previously described (Oehme et al., Proc Natl Acad Sci U S A 2013, 110, E2592-2601).

[6] = Clinical plasma pharmacokinetics (background); format: in vivo; conditions: estimated from Cmax and half-life
[7] = test system: p53 target gene expression (CDKN1A and GADD45A); experiment: Real-time PCR of p53 pathway activation in SJ-GBM2; format: cell-based; conditions: APR-246 treatment
Method: as §1

SK-N-BE(2)-C = experiment: Metabolic activity assay (CellTiter-Glo); format: cell-based; conditions: for IC50: SK-N-BE(2)-C
Method: (§2) If not otherwise declared, cells were precultured for 72 h at a density of 2,000,000 cells per T75 flask (exceptions: Kelly, NB1 and IMR-32 4,000,000 per T75 flask, SJ-GBM2 1,000,000 per T75 flask). Cells were detached with trypsin-EDTA (ThermoFisher Scientific) and seeded in 96-well plates (Greiner, Microplate, 96-Well, PS, F-bottom µCLEAR®, CELLSTAR®) in 100 µl medium per well at a density of 5,000 (KNS-42, SJ-GBM2, SF188, SK-N-BE(2)-C) or 10,000 (IMR-32, NB1, Kelly) cells/well. HDAC-inhibitor screenings were performed accordingly in 384-well plates (Greiner, Microplate, 384-Well, PS, F-bottom µCLEAR®, CELLSTAR®) in 20 µl medium per well at a density of 1,250 (SK-N-BE(2)-C, SK-N-AS) or 2,500 (IMR-32) cells/well. To avoid edge effects, margin wells (row A and H, column 1 and 12) contained PBS or medium and medium-containing wells were used as background controls. After 24 h incubation, cells were treated for 72 h. Drugs were applied using a Tecan D300e drug printer. Cell viability was quantified using CellTiter-Glo® 2.0 kit (Promega, Madison, USA). 50 µl CellTiter-Glo® (96-well) or 25 µl CellTiter-Glo® (384-well) were added to every well, the plates were shaken at 400 rpm for 5 min and were then incubated for another 10 min. Bioluminescence was quantified on an OPTIMA plate reader (BMG Labtech, Ortenberg, Germany).
(§3) All cell culture experiments were performed in triplicate. A two-tailed t-test, unpaired or paired, or ANOVA where appropriate, were performed using software program R (R version 3.2.2, 2015; The R Foundation for Statistical Computing). The packages tidyverse, janitor, readxl, writxl, ROCR, ggplot2 and ggsignif were used to calculate and plot the data. P-values of less than 0.05 were considered significant (^∗p < 0.05, ^∗∗p < 0.01, ^∗∗∗p < 0.001). IC50 values were calculated using GraphPad Prism Version 9.1.0 (GraphPad Software). Synergistic interactions were analyzed with SynergyFinder using the HSA (highest single agent) reference model, as the assumptions of other models were not fulfilled.

IMR-32 = experiment: Metabolic activity assay (CellTiter-Glo); format: cell-based; conditions: for IC50: IMR-32
Method: as §2, §3

SK-N-AS = experiment: Metabolic activity assay (CellTiter-Glo); format: cell-based
Method: as §2, with “HDAC-inhibitor screenings were performed accordingly in 384-well plates (Greiner, Microplate, 384-Well, PS, F-bottom µCLEAR®, CELLSTAR®) in 20 µl medium per well at a density of 1,250 (SK-N-BE(2)-C, SK-N-AS) or 2,500 (IMR-32) cells/well.” left out
as §3, with “A two-tailed t-test, unpaired or paired, or ANOVA where appropriate, were performed using software program R (R version 3.2.2, 2015; The R Foundation for Statistical Computing).” left out

SF188 = experiment: Metabolic activity assay (CellTiter-Glo); format: cell-based; conditions: doxorubicin combined with APR-246
Method: as §2, §3

SJ-GBM2 = experiment: Metabolic activity assay (CellTiter-Glo); format: cell-based; conditions: doxorubicin combined with APR-246
Method: as §2, §3

[8] = HDAC inhibitor alone, 72 h, 384-well
[9] = Homo sapiens, HDAC inhibitor alone, 72 h, 384-well

Compound | Maximum Tolerated Dose (MTD) (Zebrafish embryo) [µM] | IC50 (SK-N-BE(2)-C; HDAC inhibitor + APR-246 10 µM) [nM] | IC50 (SK-N-BE(2)-C; [8]) [nM] | IC50 (IMR-32; [9]) [nM] | IC50 (IMR-32; HDAC inhibitor + APR-246 2 µM) [nM] | IC50 (SK-N-AS; HDAC inhibitor + APR-246 20 µM) [nM] | IC50 (SK-N-AS; [9]) [nM] | further results
COCC1(CO)C(=O)C2CCN1CC2 (stereo not drawn) [APR-246, 2-(Hydroxymethyl)-2-(methoxymethyl)-1-azabicyclo[2.2.2]octan-3-one] | 50 |  |  |  |  |  |  | p53 target gene expression (CDKN1A and GADD45A) [1]: no reactivation; p53 target gene induction ([2]; APR-246 added to doxorubicin): did not improve p53 target gene induction; APR-246 sensitivity (metabolic activity) [3]: increased APR-246 sensitivity; p53 target gene expression ([4]; APR-246 added to doxorubicin vs doxorubicin only): did not increase target gene expression; half-life [5]: four to five; maximum plasma concentration [5]: approximately 280 µM; ROS formation and lipid peroxidation (IMR-32 cells): increased ROS formation and lipid peroxidation; estimated trough plasma concentration [6]: 15 to 20 µM; p53 target gene expression (CDKN1A and GADD45A) [7]: no reactivation
CN(C)Cc1c(C(=O)NCCOc2ccc(C(=O)NO)cc2)oc2ccccc12 [abexinostat, 3-[(Dimethylamino)methyl]-N-{2-[4-(hydroxycarbamoyl)phenoxy]ethyl}-1-benzofuran-2-carboxamide] |  | 37.5 | 172 | 100 | 30.4 | 15.4 | 46.3 | 
COc1cccc2c1C(=O)c1c(O)c3c(c(O)c1C2=O)C[C@@](O)(C(=O)CO)C[C@@H]3O[C@H]1C[C@H](N)[C@H](O)[C@H](C)O1 [doxorubicin] |  |  |  |  |  |  |  | cell viability (SF188): decreased cell viability; doxorubicin sensitivity (metabolic activity) (SK-N-BE(2)-C; doxorubicin resistant TP53-mutant SK-B-BE(2)-C, fixed APR-246 concentration with different doses of doxorubicin): increased doxorubicin sensitivity; cell viability (SJ-GBM2): decreased cell viability; doxorubicin sensitivity (metabolic activity) (IMR-32; IMR-32 (TP53-wt), fixed APR-246 concentration with different doses of doxorubicin): increased doxorubicin sensitivity; p53 target gene expression ([2]; doxorubicin single treatment): failed to activate p53 target gene expression; p53 target genes CDKN1A, PUMA and GADD45A expression ([4]; doxorubicin single-treatment): upregulation
Cc1[nH]c2ccccc2c1CCNCc1ccc(/C=C/C(=O)NO)cc1 [panobinostat, (2E)-N-hydroxy-3-[4-({[2-(2-methyl-1H-indol-3-yl)ethyl]amino}methyl)phenyl]acrylamide] |  |  | 40.2 | 35.6 | 13.9 | 1 | 2.2 | IC50 (SK-N-BE(2)-C; HDAC inhibitor + APR-246 20 µM): 3.1 nM
C/C=C1\NC(=O)[C@H]2CSSCC/C=C/[C@H](CC(=O)N[C@H](C(C)C)C(=O)N2)OC(=O)[C@H](C(C)C)NC1=O [romidepsin] |  | 9.9 | 26.9 | 0.73 |  | 1.8 | 5.7 | IC50 (IMR-32; HDAC inhibitor + APR-246 1 µM): 0.24 nM
O=C(CCCCCCC(=O)Nc1ccccc1)NO [vorinostat, N-Hydroxy-N'-phenyloctanediamide] | 100 |  |  |  |  |  |  | HSA synergy score (SK-N-AS; 72 h co-treatment of vorinostat (0-10 µM) with APR-246 (0, 15, 30, 45 µM), SynergyFinder HSA model): 12.17
